Source: ChEMBL document CHEMBL5465560, “Selectivity Literature for EUbOPEN Chemogenomic Library” (2024)

Key:
[1] = target: T1, Muscarinic acetylcholine receptor M2 (Homo sapiens) (UniProt P08172); test: Selectivity interaction (Panel of kinases, GPCRs, ion channels and transporters (enzymatic assay)) EUB0000266bCl CHRM2
T1 sequence (whole entry): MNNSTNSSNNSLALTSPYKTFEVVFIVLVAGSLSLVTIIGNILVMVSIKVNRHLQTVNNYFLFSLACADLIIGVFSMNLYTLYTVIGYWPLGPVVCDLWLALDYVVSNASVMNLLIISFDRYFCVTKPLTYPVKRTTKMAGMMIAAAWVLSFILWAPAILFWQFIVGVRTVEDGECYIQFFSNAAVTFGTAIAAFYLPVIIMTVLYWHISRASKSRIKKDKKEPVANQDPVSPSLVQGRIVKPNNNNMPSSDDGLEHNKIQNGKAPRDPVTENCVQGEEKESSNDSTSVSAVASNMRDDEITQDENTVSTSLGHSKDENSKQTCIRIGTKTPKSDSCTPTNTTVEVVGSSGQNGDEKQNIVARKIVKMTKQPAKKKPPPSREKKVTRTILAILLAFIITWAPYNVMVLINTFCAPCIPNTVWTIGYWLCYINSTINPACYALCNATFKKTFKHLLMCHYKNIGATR

[2] = target: T2, EKC/KEOPS complex subunit TP53RK (Homo sapiens) (UniProt Q96S44); test: Selectivity interaction (ActivX KiNativ screen (kinase selectivity in THP-1 cell lysates)) EUB0000639a TP53RK; assay type: subcellular; details: lysate
T2 sequence (whole entry): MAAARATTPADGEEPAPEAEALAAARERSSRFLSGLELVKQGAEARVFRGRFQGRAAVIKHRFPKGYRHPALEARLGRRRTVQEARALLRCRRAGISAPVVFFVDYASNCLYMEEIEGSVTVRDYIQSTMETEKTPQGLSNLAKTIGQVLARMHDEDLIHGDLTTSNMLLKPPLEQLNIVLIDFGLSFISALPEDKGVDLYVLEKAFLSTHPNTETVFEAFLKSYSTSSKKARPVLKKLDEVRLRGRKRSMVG

[3] = target: Serine/threonine-protein kinase Nek7 (Homo sapiens) (UniProt Q8TDX7); test: Selectivity interaction (ActivX KiNativ screen (kinase selectivity in THP-1 cell lysates)) EUB0000639a NEK7; assay type: subcellular; details: lysate, at 1 µM
Sequence of Serine/threonine-protein kinase Nek7 (Homo sapiens) (Q8TDX7 whole entry, looked up): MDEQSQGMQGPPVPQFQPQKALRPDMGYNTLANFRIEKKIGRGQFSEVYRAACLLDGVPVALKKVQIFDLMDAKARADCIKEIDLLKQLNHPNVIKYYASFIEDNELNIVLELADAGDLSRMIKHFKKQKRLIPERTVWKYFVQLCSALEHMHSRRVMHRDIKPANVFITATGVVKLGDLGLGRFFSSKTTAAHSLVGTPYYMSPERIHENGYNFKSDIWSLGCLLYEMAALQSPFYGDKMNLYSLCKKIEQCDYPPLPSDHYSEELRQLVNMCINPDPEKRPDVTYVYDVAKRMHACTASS

[4] = target: Histone-lysine N-methyltransferase, H3 lysine-36 specific (Homo sapiens) (UniProt Q96L73); details: at 10 µM
Sequence of Histone-lysine N-methyltransferase, H3 lysine-36 specific (Homo sapiens) (Q96L73 whole entry): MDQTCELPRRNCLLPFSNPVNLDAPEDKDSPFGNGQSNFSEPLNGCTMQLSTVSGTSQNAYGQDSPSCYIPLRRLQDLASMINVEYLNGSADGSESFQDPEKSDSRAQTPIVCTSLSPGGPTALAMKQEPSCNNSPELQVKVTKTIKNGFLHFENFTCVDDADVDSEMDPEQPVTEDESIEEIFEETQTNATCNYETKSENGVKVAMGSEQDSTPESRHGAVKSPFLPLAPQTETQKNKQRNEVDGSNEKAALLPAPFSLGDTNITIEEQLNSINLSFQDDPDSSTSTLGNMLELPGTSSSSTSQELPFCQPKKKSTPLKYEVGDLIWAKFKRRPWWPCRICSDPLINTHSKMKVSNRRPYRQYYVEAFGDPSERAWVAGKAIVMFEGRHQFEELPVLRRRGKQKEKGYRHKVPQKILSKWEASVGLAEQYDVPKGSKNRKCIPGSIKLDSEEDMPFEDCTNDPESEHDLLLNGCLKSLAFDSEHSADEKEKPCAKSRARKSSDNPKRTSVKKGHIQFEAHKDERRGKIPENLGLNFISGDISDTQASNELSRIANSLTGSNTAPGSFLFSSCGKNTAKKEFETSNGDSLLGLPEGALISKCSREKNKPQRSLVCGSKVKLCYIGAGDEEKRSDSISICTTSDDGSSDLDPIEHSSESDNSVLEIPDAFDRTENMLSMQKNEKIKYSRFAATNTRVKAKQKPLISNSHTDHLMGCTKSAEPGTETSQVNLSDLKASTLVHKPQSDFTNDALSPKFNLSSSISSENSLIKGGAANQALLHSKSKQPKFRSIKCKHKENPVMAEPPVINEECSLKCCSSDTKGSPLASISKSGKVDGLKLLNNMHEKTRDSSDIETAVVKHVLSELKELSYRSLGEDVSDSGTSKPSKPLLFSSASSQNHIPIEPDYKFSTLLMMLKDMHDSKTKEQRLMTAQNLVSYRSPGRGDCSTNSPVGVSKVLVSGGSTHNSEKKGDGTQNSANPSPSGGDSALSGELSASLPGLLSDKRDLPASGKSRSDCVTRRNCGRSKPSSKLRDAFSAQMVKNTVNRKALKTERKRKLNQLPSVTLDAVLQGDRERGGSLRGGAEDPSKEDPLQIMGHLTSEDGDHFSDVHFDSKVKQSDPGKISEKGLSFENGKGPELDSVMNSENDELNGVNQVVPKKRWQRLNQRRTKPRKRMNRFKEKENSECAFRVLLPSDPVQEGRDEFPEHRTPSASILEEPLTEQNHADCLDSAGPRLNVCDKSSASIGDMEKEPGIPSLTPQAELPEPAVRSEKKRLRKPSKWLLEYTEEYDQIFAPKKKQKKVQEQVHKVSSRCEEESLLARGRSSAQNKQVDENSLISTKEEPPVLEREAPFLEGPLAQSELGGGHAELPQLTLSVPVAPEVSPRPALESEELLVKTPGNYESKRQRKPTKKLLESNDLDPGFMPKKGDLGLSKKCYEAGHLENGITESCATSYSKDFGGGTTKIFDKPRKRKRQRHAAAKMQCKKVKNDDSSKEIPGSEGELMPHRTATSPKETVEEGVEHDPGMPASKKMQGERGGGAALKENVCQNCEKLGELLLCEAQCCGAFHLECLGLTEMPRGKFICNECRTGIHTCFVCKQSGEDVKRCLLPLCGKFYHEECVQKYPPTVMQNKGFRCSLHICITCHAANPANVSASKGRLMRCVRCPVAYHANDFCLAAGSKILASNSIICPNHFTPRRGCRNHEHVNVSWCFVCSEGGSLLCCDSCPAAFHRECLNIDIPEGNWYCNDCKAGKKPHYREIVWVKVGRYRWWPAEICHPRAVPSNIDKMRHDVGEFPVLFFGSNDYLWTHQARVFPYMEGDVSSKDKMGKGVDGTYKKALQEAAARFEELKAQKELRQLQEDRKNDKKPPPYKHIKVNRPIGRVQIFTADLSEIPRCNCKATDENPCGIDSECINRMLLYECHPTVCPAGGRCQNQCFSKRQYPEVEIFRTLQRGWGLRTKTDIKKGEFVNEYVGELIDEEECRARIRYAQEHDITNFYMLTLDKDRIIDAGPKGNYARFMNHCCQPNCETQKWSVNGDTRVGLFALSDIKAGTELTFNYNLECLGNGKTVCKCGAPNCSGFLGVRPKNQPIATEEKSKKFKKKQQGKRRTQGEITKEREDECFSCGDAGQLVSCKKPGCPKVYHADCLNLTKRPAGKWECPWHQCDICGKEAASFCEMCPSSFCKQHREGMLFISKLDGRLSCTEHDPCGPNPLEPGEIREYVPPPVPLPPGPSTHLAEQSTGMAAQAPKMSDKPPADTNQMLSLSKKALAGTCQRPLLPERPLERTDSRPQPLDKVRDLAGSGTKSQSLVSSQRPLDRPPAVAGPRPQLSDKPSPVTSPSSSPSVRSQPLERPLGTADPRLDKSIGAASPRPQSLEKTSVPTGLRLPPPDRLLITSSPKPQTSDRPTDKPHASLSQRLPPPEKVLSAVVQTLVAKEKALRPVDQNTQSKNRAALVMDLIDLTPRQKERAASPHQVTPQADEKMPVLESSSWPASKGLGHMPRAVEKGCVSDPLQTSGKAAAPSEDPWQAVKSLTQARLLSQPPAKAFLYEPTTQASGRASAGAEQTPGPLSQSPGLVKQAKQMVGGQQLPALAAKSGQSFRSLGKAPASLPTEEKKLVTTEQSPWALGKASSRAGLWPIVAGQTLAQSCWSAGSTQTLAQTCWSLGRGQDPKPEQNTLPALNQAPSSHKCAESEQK

[5] = target: Gastrin/cholecystokinin type B receptor (Homo sapiens) (UniProt P32239); test: Selectivity interaction (Eurofins CEREP Diversity Profile (receptors and ion channels)) EUB0000279b CCKBR; details: at 10 µM
Sequence of Gastrin/cholecystokinin type B receptor (Homo sapiens) (P32239 whole entry): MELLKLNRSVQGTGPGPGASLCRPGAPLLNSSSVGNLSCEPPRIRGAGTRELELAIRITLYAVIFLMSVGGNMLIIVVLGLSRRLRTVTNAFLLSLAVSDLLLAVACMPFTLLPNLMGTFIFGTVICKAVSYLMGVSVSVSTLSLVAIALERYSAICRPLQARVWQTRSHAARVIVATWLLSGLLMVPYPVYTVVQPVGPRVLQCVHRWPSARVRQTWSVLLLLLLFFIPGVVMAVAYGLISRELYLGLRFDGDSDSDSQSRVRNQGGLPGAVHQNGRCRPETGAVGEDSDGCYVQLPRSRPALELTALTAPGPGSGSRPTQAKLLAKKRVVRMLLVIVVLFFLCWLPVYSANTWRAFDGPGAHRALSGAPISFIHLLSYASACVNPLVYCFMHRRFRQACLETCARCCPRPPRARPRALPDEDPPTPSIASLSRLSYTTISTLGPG

[6] = target: Serine/threonine-protein kinase PAK 6 (Homo sapiens) (UniProt Q9NQU5); test: Selectivity interaction (KinomeScan (DiscoverX)) EUB0000229b PAK6; details: at 10 µM
Sequence of Serine/threonine-protein kinase PAK 6 (Homo sapiens) (Q9NQU5 whole entry, looked up): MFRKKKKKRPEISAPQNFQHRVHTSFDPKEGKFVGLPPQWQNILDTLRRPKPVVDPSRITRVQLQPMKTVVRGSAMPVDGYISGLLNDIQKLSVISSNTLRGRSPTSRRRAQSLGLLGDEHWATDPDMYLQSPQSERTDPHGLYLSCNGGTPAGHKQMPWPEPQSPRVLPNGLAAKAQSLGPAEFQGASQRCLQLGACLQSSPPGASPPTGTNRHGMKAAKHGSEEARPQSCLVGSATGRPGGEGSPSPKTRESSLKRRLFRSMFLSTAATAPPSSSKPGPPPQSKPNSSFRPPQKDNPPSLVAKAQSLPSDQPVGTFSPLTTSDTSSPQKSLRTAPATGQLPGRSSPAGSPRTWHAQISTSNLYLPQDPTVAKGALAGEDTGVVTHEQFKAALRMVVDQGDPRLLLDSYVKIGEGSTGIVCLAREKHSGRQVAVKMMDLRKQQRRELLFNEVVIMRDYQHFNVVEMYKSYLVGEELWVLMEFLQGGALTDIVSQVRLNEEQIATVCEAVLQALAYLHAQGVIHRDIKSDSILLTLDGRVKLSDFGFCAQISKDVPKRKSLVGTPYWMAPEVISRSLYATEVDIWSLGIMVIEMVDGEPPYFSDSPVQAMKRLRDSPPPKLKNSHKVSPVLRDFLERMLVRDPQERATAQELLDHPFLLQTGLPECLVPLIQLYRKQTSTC

[7] = target: T3, cGMP-dependent protein kinase 1 (Homo sapiens) (UniProt Q13976); test: Selectivity interaction (KinomeScan (DiscoverX)) EUB0000045b PRKG1
T3 sequence (whole entry): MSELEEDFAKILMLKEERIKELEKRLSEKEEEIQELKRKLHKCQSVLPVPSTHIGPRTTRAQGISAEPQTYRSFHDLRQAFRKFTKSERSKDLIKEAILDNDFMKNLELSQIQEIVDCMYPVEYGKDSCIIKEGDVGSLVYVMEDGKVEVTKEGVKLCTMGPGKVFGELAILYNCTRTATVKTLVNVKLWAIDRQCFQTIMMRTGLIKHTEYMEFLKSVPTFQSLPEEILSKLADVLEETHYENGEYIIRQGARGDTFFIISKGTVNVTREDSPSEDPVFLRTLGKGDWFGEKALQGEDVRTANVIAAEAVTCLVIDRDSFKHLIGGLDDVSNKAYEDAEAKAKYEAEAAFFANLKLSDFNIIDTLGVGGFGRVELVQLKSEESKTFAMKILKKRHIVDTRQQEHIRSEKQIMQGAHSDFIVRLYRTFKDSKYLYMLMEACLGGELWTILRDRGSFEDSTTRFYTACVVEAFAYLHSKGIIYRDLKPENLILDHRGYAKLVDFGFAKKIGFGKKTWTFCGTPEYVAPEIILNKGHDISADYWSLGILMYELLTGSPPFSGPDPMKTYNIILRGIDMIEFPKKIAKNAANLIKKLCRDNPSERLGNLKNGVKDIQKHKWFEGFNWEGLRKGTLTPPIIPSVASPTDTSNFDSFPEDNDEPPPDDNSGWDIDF

[8] = target: T4, Cyclin-dependent kinase 11A (Homo sapiens) (UniProt Q9UQ88); test: Selectivity interaction (KinomeScan (DiscoverX)) EUB0000045b CDK11A; details: at 1 µM
T4 sequence (whole entry): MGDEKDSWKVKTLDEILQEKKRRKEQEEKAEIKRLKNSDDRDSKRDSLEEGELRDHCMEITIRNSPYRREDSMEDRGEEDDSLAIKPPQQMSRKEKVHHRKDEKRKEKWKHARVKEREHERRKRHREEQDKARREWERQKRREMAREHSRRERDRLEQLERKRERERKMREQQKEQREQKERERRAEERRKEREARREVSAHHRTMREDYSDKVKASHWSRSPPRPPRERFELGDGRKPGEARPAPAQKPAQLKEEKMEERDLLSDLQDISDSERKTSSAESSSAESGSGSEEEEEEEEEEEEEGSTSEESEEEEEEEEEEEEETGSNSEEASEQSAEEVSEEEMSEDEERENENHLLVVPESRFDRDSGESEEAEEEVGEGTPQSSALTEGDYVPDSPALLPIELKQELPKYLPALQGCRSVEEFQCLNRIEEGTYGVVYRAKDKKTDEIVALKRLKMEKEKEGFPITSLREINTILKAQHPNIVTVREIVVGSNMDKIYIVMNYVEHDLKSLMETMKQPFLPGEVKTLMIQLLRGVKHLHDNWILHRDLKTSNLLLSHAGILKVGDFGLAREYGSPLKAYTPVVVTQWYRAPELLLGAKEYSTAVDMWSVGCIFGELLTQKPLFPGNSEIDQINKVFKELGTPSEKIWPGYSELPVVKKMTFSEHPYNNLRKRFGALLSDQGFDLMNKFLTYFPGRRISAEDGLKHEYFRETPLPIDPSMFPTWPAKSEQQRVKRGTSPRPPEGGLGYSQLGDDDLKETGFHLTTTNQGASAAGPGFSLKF

[9] = target: 4-aminobutyrate aminotransferase, mitochondrial (Homo sapiens, UniProt P80404); test: Selectivity interaction (GPCR panel (PDSP screen)) EUB0000311b ABAT; details: at 10 µM
[10] = target: SRSF protein kinase 2 (Homo sapiens) (UniProt P78362); test: Selectivity interaction (KinomeScan (DiscoverX)) EUB0000666a SRPK2; details: at 10 µM
Sequence of SRSF protein kinase 2 (Homo sapiens) (P78362 whole entry, looked up): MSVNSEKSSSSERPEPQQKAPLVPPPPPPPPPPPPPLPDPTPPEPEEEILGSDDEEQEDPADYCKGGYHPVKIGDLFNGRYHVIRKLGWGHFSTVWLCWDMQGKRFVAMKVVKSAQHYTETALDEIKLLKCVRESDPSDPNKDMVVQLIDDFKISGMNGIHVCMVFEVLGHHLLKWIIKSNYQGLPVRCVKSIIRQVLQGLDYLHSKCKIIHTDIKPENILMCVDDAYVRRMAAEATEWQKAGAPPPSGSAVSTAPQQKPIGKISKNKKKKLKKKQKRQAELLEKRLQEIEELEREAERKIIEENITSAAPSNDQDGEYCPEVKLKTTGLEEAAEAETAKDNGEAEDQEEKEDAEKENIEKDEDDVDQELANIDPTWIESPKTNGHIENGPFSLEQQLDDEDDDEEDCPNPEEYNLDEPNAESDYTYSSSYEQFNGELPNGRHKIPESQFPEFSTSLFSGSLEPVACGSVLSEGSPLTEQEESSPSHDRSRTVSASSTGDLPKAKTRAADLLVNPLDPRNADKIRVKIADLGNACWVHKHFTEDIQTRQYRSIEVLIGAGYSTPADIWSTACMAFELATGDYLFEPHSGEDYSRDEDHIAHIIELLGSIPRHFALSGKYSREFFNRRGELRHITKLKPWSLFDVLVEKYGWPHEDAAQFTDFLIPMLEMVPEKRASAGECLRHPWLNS

[11] = target: Dual specificity tyrosine-phosphorylation-regulated kinase 1A (Homo sapiens, UniProt Q13627); test: Selectivity interaction (Kinase panel (DSF assay)) EUB0001558a DYRK1A

SMILES: CCn1c(-c2nc3cc(C(=O)N4CCCC(N)C4)ccc3n2C)cc2ccccc21 (stereo unspecified)
- pXC50 [1]: < 4.8 M

SMILES: CC[C@@H]1[C@H](F)C(=O)N[C@@H]1COc1nccc2cc(C(N)=O)c(OC)cc12 [ZIMLOVISERTIB]
- % of inhibition ([2]; at 0.01 µM): 13.5%
- % of inhibition ([2]; at 0.04 µM): 5.2%
- % of inhibition ([2]; at 0.2 µM): 15.3%
- % of inhibition ([2]; at 1 µM): 30.7%
- % of inhibition ([2]; at 5 µM): 60.6%
- % of inhibition [3]: 2%

SMILES: CNCCN1CCC(c2cc(CN(C)C(=O)c3cccc(Oc4ccccc4)c3)ccn2)CC1
- % activity [4]: > 90%

SMILES: CC(=O)c1cc(-c2ccccc2OCC2CC2)c2ncccn12
- % of control [5]: 95%

SMILES: COc1cc(N(C)c2ccnc3ccc(C(F)(F)F)cc23)cc(OC)c1OC
- % binding [6]: 96%

SMILES: C=CC(=O)Nc1cc(-n2c(=O)ccc3cnc4ccc(-c5ccc(NS(C)(=O)=O)cc5)cc4c32)ccc1C
- % of control ([7]; at 1 µM): 87%
- % of control ([7]; at 10 µM): 100%
- % of control [8]: 100%

SMILES: CCc1ccccc1C(=O)Nc1n[nH]c2c(C)c(F)c(C3C(C#N)=C(C)N(C)C(C)=C3C#N)cc12 [BAY-3827]
- % of inhibition [9]: 85.6%

SMILES: O=C(NOC[C@H](O)CO)c1ccc(F)c(F)c1Nc1ccc(I)cc1F
- % of control [10]: 100%

SMILES: CC(C)(O)[C@H](F)CN1Cc2cc(NC(=O)c3cnn4cccnc34)c(N3CCOCC3)cc2C1=O
- dTM [11]: 0.2 K
